Key:
[1] = system: cartilage tissue cultures exposed to IL-1 (ECM degradation, HA release); experiment: HA release from IL-1 exposed cartilage tissue cultures (ELISA); format: cell-based; settings: relative to control culture
Method: Experiments were conducted to evaluate the anti-inflammatory effects of combinations of particular phytochemical compositions provided by the present disclosure with known substances, compositions, or drugs that are associated with an anti-inflammatory effect and/or an anti-degenerative or tissue integrity preservation effect in connective tissue. In the context of the present disclosure, the term “connective tissue” encompasses connective tissue proper (e.g., dense or fibrous connective tissue), as well as specialized connective tissue such as cartilage or bone. More specifically, experiments were conducted to evaluate the anti-inflammatory, anti-degenerative, and/or structural preservation effects of a combination of particular phytochemical compositions provided by the present disclosure with glucosamine sulfate. In addition, the experiments compared the anti-inflammatory/anti-degenerative effects of the combination of particular sesamin or sesamin-based phytochemical compositions provided by the present disclosure plus glucosamine sulfate, versus the anti-inflammatory/anti-degenerative effects of glucosamine sulfate alone.
Hyaluronic acid (HA) is an important component of the extracellular matrix (ECM), as well as a major component of synovial fluid. HA is present in articular cartilage, and contributes to cartilage resilience. It is known that IL-1 stimulates the synthesis and activity of matrix metalloproteinases and other enzymes that are associated with cartilage degradation as well as rheumatoid arthritis and osteoarthritis. A set of experimental cartilage tissue cultures were prepared using cartilage tissue samples containing HA within their ECMs. As further detailed below, the experimental cartilage tissue cultures selectively incorporated glucosamine sulfate alone; sesamin alone; or a combination of glucosamine sulfate and sesamin. Additionally, a control cartilage tissue culture remained unexposed to either of sesamin or glucosamine sulfate.
ECM degradation was induced in the experimental and control cartilage tissue cultures by exposing the cultures to IL-1. A measure or estimate of a cartilage tissue anti-degenerative effect was defined in accordance with an amount of HA that an experimental cartilage tissue culture released into the tissue culture medium relative to a reference or baseline amount of HA that was released into the tissue culture medium by the control cartilage tissue culture. More particularly, a percentage reduction in the amount of HA released into the tissue culture medium by a given experimental cartilage tissue culture relative to the amount of HA released into the tissue culture medium by the control cartilage tissue culture, indicated below as “Percentage (%) HA Reduction”, conveys or indicates the magnitude of an anti-degenerative or structural preservation effect provided by the experimental cartilage tissue culture under consideration. A corresponding measure or estimate of percentage (%) HA retention by cartilage tissue can also be defined based upon the experimental results. The amount or level of HA present in a given tissue culture medium was detected using ELISA, in a manner that can be understood by one of ordinary skill in the art.

[2] = system: IL-1 gene expression in LPS induced synovial fibroblast (SF) cells; experiment: IL-1 gene expression relative to GAPDH in LPS induced synovial fibroblast cells (RT-PCR); format: cell-based; settings: 24 hours
Method: Experiments were conducted to evaluate the effect of particular phytochemical compositions provided by the present disclosure on IL-1 gene expression in specified cells found within a body of a living organism. The cells used for the experiments described in example one are lipopolysaccharide (LPS) induced synovial fibroblast (SF) cells. The SF cells were isolated from synovium tissue (also referred to as synovial tissue) using standard cell isolation techniques or methods known to a person of ordinary skill in the art. In addition, LPS is obtained from a commercial source, for example Sigma-Aldrich Co. It is understood by a person having ordinary skill in the art that the SF cells may be substituted with other immune cells found within the body, for example peripheral blood mononuclear cells, lymphocytes, monocytes, and macrophages, which can be isolated using techniques or methods known to a person of ordinary skill in the art. […]
The amount or level of IL-1 gene expression in the SF cells was measured or determined using methods or techniques known to a person having ordinary skill in the relevant art. In example 1, Real-Time PCR (RT-PCR) was used for quantifying the amount of IL-1 gene expression in the SF cells. IL-1beta or IL-1β specific primers were used during RT-PCR, thereby facilitating the quantification of IL-1β gene expression in the SF cells. […]

## c1cc2c(cc1[C@H]1OC[C@H]3[C@@H]1CO[C@@H]3c1ccc3c(c1)OCO3)OCO2 [sesamin]
[1]; sesamin 0.25 uM (88.6 ug/ml)
  Percentage (%) HA Reduction: approximately 0%
[1]; sesamin 0.25 uM (88.6 ug/ml), listed as Sesamin
  Percentage (%) HA Reduction: 0%
[1]; sesamin 0.50 uM (177.2 ug/ml)
  Percentage (%) HA Reduction: approximately 4%
[1]; sesamin 0.50 uM (177.2 ug/ml), listed as Sesamin
  Percentage (%) HA Reduction: 4%
[1]; sesamin 1.00 uM
  Percentage (%) HA Reduction: approximately 43%
[1]; sesamin 1.00 uM, listed as Sesamin
  Percentage (%) HA Reduction: 56%
[2]; 0.025 mM sesamin (culture 4), compared to control culture 3 (LPS 0.2 μg/ml + DMSO)
  decrease in IL-1 gene expression relative to GAPDH: approximately 20%
[2]; 1.0 mM sesamin (culture 9), compared to control culture 2 (LPS 0.2 μg/ml)
  decrease in IL-1 gene expression relative to GAPDH: approximately 65%

Reference: patent US20170333390A1, “PHYTOCHEMICAL COMPOSITIONS INCLUDING SESAMIN FOR ANTI-INFLAMMATORY, ANTI-CYTOKINE STORM, AND OTHER USES” (CHIANG MAI UNIVERSITY, priority 2009, published 2017)
